From patent publication US9815878B2, “Use of PEDF-derived polypeptides for preventing and/or ameliorating skin aging” (MacKay Memorial Hospital, priority 2012, dated 2017) come the findings set out here.

Data set [1] deals with primary mouse dermal fibroblasts. The data set is described as follows: Cell viability of primary mouse dermal fibroblasts pretreated with peptide. To be noted: 100 nM for 24 hours, data not shown. It is filed as cell-based. The source says:
(§1) According to our preliminary study, cell viability was greater than 95% relative to that of the control after exposure to 15 mJ/cm^2 UVB irradiation (data not shown). […] Therefore, the exposure dose was set at 15 mJ/cm^2 in the following experiment.

Data set [2] has as its system Human dermal fibroblasts (WS-1 cells). The data set is described as follows: Cell viability of WS-1 cells pretreated with peptide. Type of data set: cell-based. To be noted: 100 nM for 24 hours, data not shown.
Source text: as §1

For data set [3], the system named is primary mouse dermal fibroblasts. The data set is described as follows: Cell migration of primary mouse dermal fibroblasts, transwell assay. It is filed as cell-based. Conditions: 100 nM for 24 hours, data not shown.
For a further data set, the system named is dermal fibroblasts. The data set is described as follows: Vimentin-positive fibroblast count in dermis of treated mice. Type of data set: in vivo, C57BL/6 mice. Conditions: ointment plus microneedle (MN), specimens from Example 2. The protocol:
Collagen is the major matrix component of the dermis and forms a tough fiber framework to provide the elastic property of the skin. This working example investigated whether the present PEDF peptides increase dermal collage content. Mice depilated as described in Example 1 were randomly assigned to several experimental groups and treated as follows. For each mouse, one side of the dorsal midline (about 2 cm^2) received 50 μl of ointment (the 29-mer, 20-mer, or DMSO-containing ointment) and a subsequent microneedle treatment; while the other side of the dorsal midline (about 2 cm^2) received 50 μl of the same ointment without the microneedle treatment. The treatment was given twice a week for two weeks, and the skin was left uncovered and harvested 14 days after the first treatment. Skin specimens were stained with Masson's trichrome stain (blue) for dermal collagen; representative images are provided in FIG. 2. The stained collagen area in the skin was quantified as taught above in the “Materials and Methods” section, and the results were normalized with the area of Vehicle/MN. […]
Specimens from Example 2, above, were also stained for the fibroblast marker, vimentin, and the vimentin-positive cells were counted under microscope.

In data set [4] the test system is dermal collagen. The data set can be described thus: Dermal collagen content, Masson's trichrome stained collagen area in depilated mouse skin. It is filed as in vivo, C57BL/6 mice. To be noted: for Collagen Area (fold): ointment plus microneedle (MN), twice a week for two weeks, day 14, normalized with Vehicle/MN; for collagen level (Masson's trichrome sections) versus vehicle/CT: ointment without microneedle treatment (CT). The protocol:
(§2) General histology was performed using hematoxylin and eosin (H&E) dye. Deparaffinized skin tissue sections were stained using Masson's Trichrome (Sigma-Aldrich, St. Louis, Mo.) according to the manufacturer's instructions; sections was examined and photographed by a Nikon Eclipse 80i light microscope (original magnification, ×400). For semi-quantitative analysis of collagen area, 10 fields from each slide were randomly selected under the light microscope, and the blue-stained area per entire area of the cross section (mm^2/mm^2) was measured using the Image-Pro Plus 4.5.1 system (Media Cybernetics).
Collagen is the major matrix component of the dermis and forms a tough fiber framework to provide the elastic property of the skin. This working example investigated whether the present PEDF peptides increase dermal collage content. Mice depilated as described in Example 1 were randomly assigned to several experimental groups and treated as follows. For each mouse, one side of the dorsal midline (about 2 cm^2) received 50 μl of ointment (the 29-mer, 20-mer, or DMSO-containing ointment) and a subsequent microneedle treatment; while the other side of the dorsal midline (about 2 cm^2) received 50 μl of the same ointment without the microneedle treatment. The treatment was given twice a week for two weeks, and the skin was left uncovered and harvested 14 days after the first treatment. Skin specimens were stained with Masson's trichrome stain (blue) for dermal collagen; representative images are provided in FIG. 2. The stained collagen area in the skin was quantified as taught above in the “Materials and Methods” section, and the results were normalized with the area of Vehicle/MN. The level of type I collagen (COL1A1) was investigated by the above-described immunoblot analysis, and the results were normalized with the level of the vehicle/CT group.

Data set [5] concerns Human dermal fibroblasts (WS-1 cells). The data set is described as follows: Cell migration of WS-1 cells, transwell assay. It is filed as cell-based. To be noted: 100 nM for 24 hours, data not shown.
Source text: as §1

For data set [6], the system named is dermal collagen. The data set is described as follows: Collagen content of UVB-damaged mouse skin, Masson's trichrome staining. Type of data set: in vivo, nude mice. Conditions: 8-week UVB, then transdermal delivery for 2 weeks. The protocol:
as §2
Six-week-old female nude mice (BALB/cAnN.Cg-Foxn1nu/CrlNarl) were irradiated with ultraviolet B (UVB) on the back 5 times a week for an eight-week period using a bank of five UVB lamps (model XL-1000B, Spectrolinker™ apparatus; emission peak: 312 nm), placed about 20 cm above the backs of the animals. During the UVB exposure, the mice were allowed to move freely within the cage. […] The level of BrdU- and vimentin-double positive cells was expressed as the percentage of BrdU- and vimentin-double positive cells per total vimentin-positive cells (the BrdU/Vimentin Labeling Index). […]

Another data set deals with type I collagen (COL1A1). The data set is described as follows: Type I collagen (COL1A1) level in mouse skin by immunoblot. Type of data set: in vivo, C57BL/6 mice. Conditions: ointment plus microneedle (MN), twice a week for two weeks, day 14; normalized with vehicle/CT. The protocol:
Skin tissues were homogenized in ice-cold lysis buffer containing 20 mM HEPES (pH 7.4), 150 mM NaCl, 1% SDS, 1 mM ethylenediamine tetraacetic acid (EDTA), 5 mM phenylmethanesulfonyl fluoride (PMSF), and 1 mM dithiothreitol (DTT), 1% Triton X-100, with freshly added protease inhibitor cocktail (Roche, Indianapolis, Ind.). Homogenates were then centrifuged at 12,000 g for 30 minutes at 4° C., and supernatants were then collected and stored at −70° C. Protein contents in lysates were determined using the Bradford assay. Whole cell lysates were prepared using the above lysis buffer. Aliquots of the lysates were then resolved on a SDS-PAGE and then electrotransferred to polyvinylidene difluoride (PVDF) membranes (Millipore, Bedford, Mass., USA) and processed for immunoblot analysis.
Antibodies used in the immunoblot study included anti-type I collagen 1A1 antibody (1:1000 dilution), anti-MMP-1 antibody (1:500 dilution) and anti-β-actin antibody (1:10000 dilution). Proteins of interest were detected using the appropriate IgG-HRP secondary antibody and ECL reagent (Amersham, Arlington Heights, Ill., USA). X-ray films were scanned on a Model GS-700 Imaging Densitometer (Bio-Rad Laboratories, Hercules, Calif.) and analyzed using Labworks 4.0 software. For quantification, blots from at least three independent experiments were used. […]
A general note: In western blotting, separated proteins are transferred to a membrane and probed.

Regarding “Ac-SLGAEQRTESIIHRALYYDLISSPDIHGT-NH2 [29-mer]”, the cell viability result in data set [1] and in data set [2] was “did not cause any significant change in cell viability” throughout. Also, the cell migration entry in data set [3] and in data set [5] was “did not cause any significant change in cell migration” in each case. The “Vimentin+ Cells per mm^2” value in the data set with dermal fibroblasts is reported as 1688 ± 197 Cells per mm^2. Besides, the “Collagen Area (fold)” value with dermal collagen [4] is 1.7 ± 0.14 fold. Besides, in the data set on dermal collagen [4], the “collagen level (Masson's trichrome sections) versus vehicle/CT” value was “no significant difference”. Further, in the data set with dermal collagen [6], the “collagen level in the dermis versus UVB/vehicle group (Masson's trichrome, FIG. 5)” value is “significantly enhanced”. Further, the “COL1A1 Level (fold)” value in the data set on type I collagen (COL1A1) came to 1.7 ± 0.24 fold.

Take “SLGAEQRTESIIHRALYYDL [20-mer, synthetic peptide corresponding to residues 93-112 of human PEDF]”: the “Vimentin+ Cells per mm^2” value in the data set on dermal fibroblasts was 1745 ± 143 Cells per mm^2. For the same substance, in the data set with dermal collagen [4], the “Collagen Area (fold)” value was found to be 1.6 ± 0.11 fold and the “collagen level (Masson's trichrome sections) versus vehicle/CT” value is listed as “no significant difference”. Further, the “collagen level in the dermis versus UVB/vehicle group (Masson's trichrome, FIG. 5)” value in the data set with dermal collagen [6] was “significantly enhanced”. Further, the “COL1A1 Level (fold)” value with type I collagen (COL1A1) amounted to 1.8 ± 0.20 fold.
